Assay results published in patent US20020039567A1, “Methods of treating bone or cartilage conditions by the administration of creatine” (priority 1998, published 2002).

Tests used:
epiphyseal growth plate = details: feeding rats with GPA; cited from earlier work
embryonic chick femora = details: cited from earlier work
[1] = system: osteoblasts (monolayer culture); experiment: Cell viability (neutral red uptake), monolayer osteoblast cell culture; assay type: cell-based, rat
Protocol: This isolation technique is based on the ability of osteoblasts to migrate from bone onto a substratum. Parietal and frontal calvariae (4 per animal) were aseptically explanted from 6 day-old IcoIbm rats. The calvariae were placed in Tyrode's balanced salt solution, calcium and magnesium free (TESS). The periosteum was enzymatically removed with 0.05% trypsin and 0.02% collagenase A (0.76 U/mg) dissolved in TBSS (40 calvaria/20 ml). The calvariae were shaken for 70 minutes in a waterbath at 37° C. They were washed with TESS and then transferred to 60 mm culture dishes (40 calvariae/dish) containing 5 ml of 0.02% collagenase A (0.76 U/mg) in culture medium BGJb Fitton-Jackson modification and placed in the incubator for 4 hours. The calvariae were then washed with culture medium B supplemented with 10% foetal calf serum (FCS). The calvariae were transferred into 60 mm culture dishes (4 frontal and 4 parietal/dish). The growth medium supplemented with 10% FCS and 50 μg/ml ascorbate was completely changed every 48 hours. The culture was kept for 3 weeks.
After 3 weeks the migrated cells were harvested. The dish was washed with TESS, and 5 ml of TESS containing 0.05% trypsin and 0.02% collagenase A (0.76 U/mg) was added. After 1 hour in the incubator, the dish was washed with culture medium BGJb supplemented with 10% FCS. The dishes containing the calvariae and cells were rinsed with serum containing media BGJb. The cells obtained were filtered through a 40 μm nylon mesh to remove bone debris and cell aggregates. The suspended cells were centrifuged at 600 g for 5 minutes. The cell pellet was resuspended in serum containing medium BGJb and centrifuged. The viability of the resuspended cells was examined by the dye exclusion of 0.4% trypan blue, and the cells were counted in a haeinocytometer. The inoculation densities were 2·10^5/10 cm^2 for monolayer and 2·10^5/30 μl for micromasses. The micromass cultures were kept for 1 hour in the incubator before 2 ml growth medium was added.
All the cultures were kept at 37° C. in a humidified atmosphere of 5% CO2, 95% air. All culture media were supplemented with 50 μg/ml ascorbate. To analyze the collagen types, 60 μg/ml beta-aminopropionitrile (beta-APN) was added to the culture medium. During cell isolation and inoculation, no ascorbate was used to increase plating efficiency. No antibiotics and no beta-glycerophosphate were added. The media were completely changed every 48 hours (60 mm culture dish 5 ml; 35 mm culture dish 2 ml).
The method described in (Lindl et al. 1994) was used.
The uptake of NR into lysosomes is […] the metabolic status of the cell.
0.5 mg Neutral red/ml growth medium, warmed up to 37° C. for at least 2 hours,
50% ethanol in 1% acetic acid
1. The cells were incubated in 2 ml/10 cm^2NR solution at 37° C. for 3 hours.
2. The supernatant was removed,
3. washed with PBS, at least 3 times, until no crystals were present.
4. Addition of 4 ml/10 cm^2 extraction buffer.
5. The absorbance of the supernatant (3 aliquots/dish) was read at 540 nm versus extraction buffer.
6. If the absorbance was higher than 1, the samples were diluted with extraction buffer.
The mean value and the standard deviation consisted of n independent experiments. The values for the individual experiments were gained from the mean of 3 aliquots of the same dish. To compare the treatment, contrasts analysis of variance models were evaluated.

[2] = system: osteoblasts (micromass culture); experiment: Mineralization, micromass osteoblast cell culture; assay type: cell-based, rat
Protocol: This isolation technique is based on the ability of osteoblasts to migrate from bone onto a substratum. Parietal and frontal calvariae (4 per animal) were aseptically explanted from 6 day-old IcoIbm rats. The calvariae were placed in Tyrode's balanced salt solution, calcium and magnesium free (TESS). The periosteum was enzymatically removed with 0.05% trypsin and 0.02% collagenase A (0.76 U/mg) dissolved in TBSS (40 calvaria/20 ml). The calvariae were shaken for 70 minutes in a waterbath at 37° C. They were washed with TESS and then transferred to 60 mm culture dishes (40 calvariae/dish) containing 5 ml of 0.02% collagenase A (0.76 U/mg) in culture medium BGJb Fitton-Jackson modification and placed in the incubator for 4 hours. The calvariae were then washed with culture medium B supplemented with 10% foetal calf serum (FCS). The calvariae were transferred into 60 mm culture dishes (4 frontal and 4 parietal/dish). The growth medium supplemented with 10% FCS and 50 μg/ml ascorbate was completely changed every 48 hours. The culture was kept for 3 weeks. After 3 weeks the migrated cells were harvested. The dish was washed with TESS, and 5 ml of TESS containing 0.05% trypsin and 0.02% collagenase A (0.76 U/mg) was added. After 1 hour in the incubator, the dish was washed with culture medium BGJb supplemented with 10% FCS. The dishes containing the calvariae and cells were rinsed with serum containing media BGJb. The cells obtained were filtered through a 40 μm nylon mesh to remove bone debris and cell aggregates. The suspended cells were centrifuged at 600 g for 5 minutes. The cell pellet was resuspended in serum containing medium BGJb and centrifuged. The viability of the resuspended cells was examined by the dye exclusion of 0.4% trypan blue, and the cells were counted in a haeinocytometer. The inoculation densities were 2·10^5/10 cm^2 for monolayer and 2·10^5/30 μl for micromasses. The micromass cultures were kept for 1 hour in the incubator before 2 ml growth medium was added. All the cultures were kept at 37° C. in a humidified atmosphere of 5% CO2, 95% air. All culture media were supplemented with 50 μg/ml ascorbate. To analyze the collagen types, 60 μg/ml beta-aminopropionitrile (beta-APN) was added to the culture medium. During cell isolation and inoculation, no ascorbate was used to increase plating efficiency. No antibiotics and no beta-glycerophosphate were added. The media were completely changed every 48 hours (60 mm culture dish 5 ml; 35 mm culture dish 2 ml). The most specific method for detecting calcified matrices is the von Kossa reaction. Silver staining indicates the presence of calcium phosphate aggregated with certain organic acids. Structural details are completely obscured by the dark precipitate. Calcified tissue components are darkened in various shades from light brown to deep black, irrespective of their mineral content. [table]

N=C(N)NCCC(=O)O [GPA, beta-guanidinopropionic acid]
epiphyseal growth plate morphology (epiphyseal growth plate): marked abnormalities

CN(CC(=O)O)C(=N)N [creatine]
perichondral ossification in the diaphysis (embryonic chick femora; 0.1 mM in chick embryo extract with 20% horse serum): accelerated
deposition of calcium in the cartilage matrix of the epiphysis (embryonic chick femora; very crude preparations at 0.1 mM in chick embryo extract with 20% horse serum): accelerated
NR uptake (FIG. 1) ([1]; 10 mM and 20 mM creatine vs control, 1 and 2 weeks): no significant difference between the groups
toxic effect (from NR uptake) ([1]; 10 mM creatine): no toxic effect
NR uptake (FIG. 1), difference to control ([1]; 10 mM creatine vs control, 3 weeks): not significant
NR uptake (FIG. 1) ([1]; 10 mM creatine, 3 weeks compared to 1 week, p<0.02): significantly higher
NR uptake (FIG. 1) ([1]; 20 mM creatine vs control, 3 weeks, p<0.008): significantly lowered NR uptake
toxic effect (from NR uptake) ([1]; 20 mM creatine, 3 weeks): some toxic effects on the proliferation of the cells
mineralized area (FIG. 4) ([2]; 10 mM creatine vs control, 2 weeks, p<0.00025): significantly more mineralization
mineralized area (FIG. 4) ([2]; 10 mM creatine vs control, 3 weeks, p<0.0035): significantly higher
mineralization (FIG. 4) ([2]; 10 mM creatine, 3 weeks vs 2 weeks, p<0.0015): significantly higher mineralization
mineralized area (FIG. 4) ([2]; 20 mM creatine vs control, 2 weeks, p<0.00025): significantly more mineralization
mineralized area (FIG. 4) ([2]; 20 mM creatine vs control, 3 weeks, p<0.03): significantly higher
